EP0562575B1, “N-substituted-3-(substituted hydrazino)-benzenesulfonamide derivative, preparation process thereof, and herbicidal compositions” (KUREHA KAGAKU KOGYO KABUSHIKI KAISHA, priority 1992, dated 1993)
Where two headings read alike, the source gives them in different places.

How the values were obtained:
Assay type in all cases: in vivo
Wheat = system: Wheat; set-up: key: 0: no inhibition; less than 31%; 2: 31 - 50%; 3: 51 - 70%; 4: 71 - 90%; 5: 91 - 100%; conditions: 1 - to 2 - leaf stage, 21 days
Method: (§1) Wheat and the weed were reared from seeds in the planters in a glasshouse. When the young plants had reached the 1 - to 2 - leaf stage, the wettable powders prepared in the same manner as Preparation Example 1 described above were diluted with water to a prescribed concentration and sprayed uniformly to the stalks arid leaves of the plants and on the soil surface in the planters by a spray gun so that the acrive ingredient would be applied at a rate of 5 g/ha and 50 g/ha. Then the planters were kept in the glasshouse. Twenty-one days after said treatment, the herbicidal effect of the compositions on the weeds and phytotoxicity of the crops were observed and evaluated according to the following ratings.

Avena fatua = assay: Test on herbicidal activity by foliar application; conditions: A.f.; 50 g/ha foliar spray, 2 - 4 leaf stage, 14 days
Description: (§2) Herbicidal solutions of each test compound, which had been prepared by dissolving at predetermined concentrations such as wettable powder of the test compound as that described in the above formulation example, and sprayed at dosages of 5 g/ha and 50 g/ha over foliar parts of Amaranthus retroflexus, (Redroot pigweed), Bidens pilosa (Common blackjack), Sinapis arvensis (Wild mustard), Stellaria media (Common chickweed), Cassia obtusifolia (Sicklepod), Solanum nigrum (Black nightshade), Abutilon theophrasti (Velvetleaf), Convolvulus arvensis (Field bindweed), Matricaria chamomilla (Wild chamomile), Setaria viridis (Green foxtail), Echinochloa frumentaceum (Barnyard grass), Avena fatua (Wild oat), and Digitaria adscendens (Henry crabgrass) which had been allowed to grow individually to 2 - 4 leaf stage in pots. Fourteen days later after spraying of the test compound, its herbicidal acrivity was evaluated in accordance with the below-described system.
(§3) 0: no effects 1: less than 30% of total kill 2: 31 - 50% of total kill 3: 51 - 70% of total kill 4: 71 - 90% of total kill 5: 91 - 100% of total kill.

Solanum nigrum [1] = assay: Test on herbicidal activity by foliar application; conditions: S.n; 50 g/ha foliar spray, 2 - 4 leaf stage, 14 days
Description: as §2, §3

Echinochloa frumentaceum = assay: Test on herbicidal activity by foliar application; conditions: E.f.; 50 g/ha foliar spray, 2 - 4 leaf stage, 14 days
Description: as §2, §3

Amaranthus retroflexus [2] = assay: Test on herbicidal activity by foliar application; conditions: A.r; 50 g/ha foliar spray, 2 - 4 leaf stage, 14 days
Description: as §2, §3

Setaria viridis [3] = assay: Test on herbicidal activity by foliar application; conditions: S.v.; 50 g/ha foliar spray, 2 - 4 leaf stage, 14 days
Description: as §2, §3

Bidens pilosa [4] = assay: Test on herbicidal activity by foliar application; conditions: B.p; 50 g/ha foliar spray, 2 - 4 leaf stage, 14 days
Description: as §2, §3

Cassia obtusifolia = assay: Test on herbicidal activity by foliar application; conditions: C.o.; 50 g/ha foliar spray, 2 - 4 leaf stage, 14 days
Description: as §2, §3

Abutilon theophrasti = assay: Test on herbicidal activity by foliar application; conditions: A.t; 50 g/ha foliar spray, 2 - 4 leaf stage, 14 days
Description: as §2, §3

Sinapis arvensis = assay: Test on herbicidal activity by foliar application; conditions: S.a.; 50 g/ha foliar spray, 2 - 4 leaf stage, 14 days
Description: as §2, §3

Matricaria chamomilla [5] = assay: Test on herbicidal activity by foliar application; conditions: M.c; 50 g/ha foliar spray, 2 - 4 leaf stage, 14 days
Description: as §2, §3

Stellaria media = assay: Test on herbicidal activity by foliar application; conditions: S.m.; 50 g/ha foliar spray, 2 - 4 leaf stage, 14 days
Description: as §2, §3

Digitaria adscendens = assay: Test on herbicidal activity by foliar application; conditions: D.a.; 50 g/ha foliar spray, 2 - 4 leaf stage, 14 days
Description: as §2, §3

Convolvulus arvensis = assay: Test on herbicidal activity by foliar application; conditions: C.a.; 50 g/ha foliar spray, 2 - 4 leaf stage, 14 days
Description: as §2, §3

Solanum nigrum [6] = assay: Germination test of seeds (Petri dish); conditions: S.n., seeds in Petri dish, 28 °C, 14 days
Method: (§4) Two sheets of filter paper were placed in a superposed relation in each of Petri dishes having a diameter of 9 cm. Water suspensions of each test compound (concentrations of the active ingredient: 0.25 ppm and 2.5 ppm) were separately poured in an amount of 6ml per dish into the Petri dishes. Seeds of Amaranthus retroflexus, (Redroot pigweed), Bidens pilosa (Common blackjack), Matricaria chamomilla (Wild chamomile), Solanum nigrum (Black nightshade), Echinochloa crus-galli(Barnyard grass), Cyperus iria (Rice flatsedge) and Setaria viridis (Green foxtail) were placed at a rate of 10 seeds per dish in the Petri dishes. They were thereafter allowed to germinate in a constant-temperature chamber at 28 °C. Fourteen days later after placement in the Petri dishes, the degrees of germination and growth inhibition were observed visually. The observation results were ranked in accordance with the below-described 6-stage system.

Echinochloa crus-galli = assay: Germination test of seeds (Petri dish); conditions: E.c., seeds in Petri dish, 28 °C, 14 days
Method: as §4

Amaranthus retroflexus [7] = assay: Germination test of seeds (Petri dish); conditions: A.r., seeds in Petri dish, 28 °C, 14 days
Method: as §4

Setaria viridis [8] = assay: Germination test of seeds (Petri dish); conditions: S.v., seeds in Petri dish, 28 °C, 14 days
Method: as §4

Bidens pilosa [9] = assay: Germination test of seeds (Petri dish); conditions: B.p., seeds in Petri dish, 28 °C, 14 days
Method: as §4

Cyperus iria = assay: Germination test of seeds (Petri dish); conditions: C.i., seeds in Petri dish, 28 °C, 14 days
Method: as §4

Matricaria chamomilla [10] = assay: Germination test of seeds (Petri dish); conditions: M.c., seeds in Petri dish, 28 °C, 14 days
Method: as §4

Galium aparine = assay: Test for selective herbicidal effect in post-emergence by treatment of stalks and leaves; conditions: 1 - to 2 - leaf stage, 21 days
Method: as §1

With `CC=NNc1ccc(C(=O)OC)c(S(=O)(=O)NC(=O)Nc2nc(OC)nc(OC)n2)c1` [Compound I-1] the “Growth inhibition rate (phytotoxicity of the crops)” value (Wheat; 5 g/ha post-emergence spray) was 0, the “Growth inhibition rate (phytotoxicity of the crops)” value (Wheat; 50 g/ha post-emergence spray) was 0 and the Herbicidal activity (Avena fatua) was 2 (31 - 50% of total kill). For the same compound, the Herbicidal activity (Solanum nigrum [1]) was 5 (91 - 100% of total kill), the Herbicidal activity (Echinochloa frumentaceum) was 3 (51 - 70% of total kill) and the Herbicidal activity (Amaranthus retroflexus [2]) was 5 (91 - 100% of total kill). For the same compound, the Herbicidal activity (Setaria viridis [3]) was 3 (51 - 70% of total kill), the Herbicidal activity (Bidens pilosa [4]) was 5 (91 - 100% of total kill) and the Herbicidal activity (Cassia obtusifolia) was 5 (91 - 100% of total kill). The Herbicidal activity (Abutilon theophrasti) was 5 (91 - 100% of total kill), the Herbicidal activity (Sinapis arvensis) was 5 (91 - 100% of total kill) and the Herbicidal activity (Matricaria chamomilla [5]) was 5 (91 - 100% of total kill). For the same compound, the Herbicidal activity (Stellaria media) was 5 (91 - 100% of total kill), the Herbicidal activity (Digitaria adscendens) was 4 (71 - 90% of total kill) and the Herbicidal activity (Convolvulus arvensis) was 5 (91 - 100% of total kill). The Growth inhibition rate (Solanum nigrum [6]; 0.25 ppm) was 2 (31 - 50%), the Growth inhibition rate (Solanum nigrum [6]; 2.5 ppm) was 3 (51 - 70%) and the Growth inhibition rate (Echinochloa crus-galli; 0.25 ppm) was 2 (31 - 50%). For the same compound, the Growth inhibition rate (Echinochloa crus-galli; 2.5 ppm) was 3 (51 - 70%), the Growth inhibition rate (Amaranthus retroflexus [7]; 0.25 ppm) was 3 (51 - 70%) and the Growth inhibition rate (Amaranthus retroflexus [7]; 2.5 ppm) was 5 (91 - 100%). For the same compound, the Growth inhibition rate (Setaria viridis [8]; 0.25 ppm) was 3 (51 - 70%), the Growth inhibition rate (Setaria viridis [8]; 2.5 ppm) was 4 (71 - 90%) and the Growth inhibition rate (Bidens pilosa [9]; 0.25 ppm) was 3 (51 - 70%). The Growth inhibition rate (Bidens pilosa [9]; 2.5 ppm) was 4 (71 - 90%), the Growth inhibition rate (Cyperus iria; 0.25 ppm) was 2 (31 - 50%) and the Growth inhibition rate (Cyperus iria; 2.5 ppm) was 4 (71 - 90%). For the same compound, the Growth inhibition rate (Matricaria chamomilla [10]; 0.25 ppm) was 2 (31 - 50%), the Growth inhibition rate (Matricaria chamomilla [10]; 2.5 ppm) was 4 (71 - 90%) and the “Growth inhibition rate (herbicidal effect)” value (Galium aparine; 5 g/ha post-emergence spray) was 5 (91 - 100%). For the same compound, the “Growth inhibition rate (herbicidal effect)” value (Galium aparine; 50 g/ha post-emergence spray) was 5 (91 - 100%).
